Data published in US7534871B2, “Preparation and use of carbohydrate-based bicyclic ring structures with antimicrobial and cytostatic activity” (Kemin Pharma B.V.B.A., priority 2004, dated 2009).
Values after ≈ are worked out from the molar mass of the structure shown.

How the values were obtained:
[1] = test system: Microsporum gypseum IHEM 3999 - ATCC 14683; assay: Anti-fungal activity, Bioscreen C growth curve: Microsporum gypseum (mold); assay type: cell-based; settings: Nannizzia gypsea, ATCC14683, 120 h; 25 PPM; 25° C., 5 days; negative control = 100; read-out: % of growth at a dose of 25 PPM compared to the negative control, Microsporum gypseum IHEM 3999 - ATCC 14683
Description: (§1) For the determination of the anti-bacterial and anti-fungal activity the Bioscreen C Analyser Labsystems, Finland, was used. This is an automated reader-incubator. It measures growth continuously by vertical photometry (optical density), processes the data and provides a print out of the results. The area under the growth curve is automatically determined via the Biolink software.
The inoculum size of the mould is standardized to 0.4-5.0×10^4 CFU/ml.
(§2) For bacteria, the 100-honey-well plates containing test chemical, Mueller-Hinton broth and inoculum (=sample) are incubated at 35° C. for 16 hours. Also wells without inoculum are incubated (=blanco). Yeasts are incubated 35° C. for 24 hours in RPMI 1640+MOPS buffer at 165 mM. Moulds also in RPMI 1640+MOPS buffer at 165 mM are incubated 25° C. for 5 days. All micro-organisms are screened against a known concentration of the reference antibiotics or antimycotics such as vancomycin, penicillin G, gentamicin or amphotericin B. The growth curve and the area under the growth curve can be determined using the Biolink software; this is illustrated in FIG. 1.
(§3) The area of the blanco is subtracted from the area of the sample, this number (delta) gives us an indication of the biological activity of the molecules tested and can be expressed as a % of growth at a specific dose compared to a negative control that has a value of 100, illustrated in FIG. 2. Screening of each dose of a specific compound is repeated 5 times. The dose used for all new molecules in all tests is 25 PPM or 25 μg/ml.
In Table 5 the anti-fungal activity is given for the new molecules. The micro-organisms used were Candida albicans (a typical yeast) and Microsporum gypseum (a typical mold).
as §1, with “Also for” for “For”, “the” for “the anti-bacterial and”, “Labsystems Oy, Finland” for “Labsystems, Finland,”, “used.” for “used. This is an automated reader-incubator.”
The inoculum size of the yeast is standardized to 0.5-2.5×10^3 CFU/ml. The inoculum size of the mould is standardized to 0.4-5.0×10^4 CFU/ml. Yeasts are incubated 35° C. for 24 hours in RPMI 1640+MOPS buffer at 165 mM. Moulds also in RPMI 1640+MOPS buffer at 165 mM are incubated 25° C. for 5 days.
As a control, all micro-organisms are screened against some reference antibiotics with known MIC. Screening of each dose of a specific compound is repeated 5 times.

HEL cells = assay: Cytotoxicity: alteration of cell morphology (MCC); assay type: cell-based, human; settings: minimum cytotoxic concentration that causes a microscopically detectable alteration of cell morphology
VRE ATCC700221 = assay: Anti-bacterial activity, Bioscreen C growth curve: VRE; assay type: cell-based, vancomycin-resistant Enterococcus (VRE); settings: Enterococcus, 35° C., 16 hours, negative control = 100, read-out: % of growth at 25 PPM compared to the negative control, VRE ATCC700221
Description: as §1
The inoculum size of the bacteria is standardized to approximately 5×10^5 CFU/ml.
as §2, §3
In Table 4 the results of the anti-bacterial activity is given for the new molecules. The micro-organisms used are Staphylococcus aureus, MRSA, VRE, Enterococcus faecalis, Salmonella typhimurium and Pseudomonas aeruginosa.

VZV YS = assay: Anti-viral activity: VZV-induced plaque formation in HEL cell cultures, YS strain; assay type: cell-based, varicella zoster virus (VZV); settings: Human alphaherpesvirus 3, VZV-induced plaque formation in human embryonic lung HEL cell cultures, 50%
HSV-2 (G) = assay: Anti-viral activity: HSV-2-induced cytopathicity in human embryo fibroblast E6SM cell cultures; assay type: cell-based, herpes simplex virus (HSV); settings: Human alphaherpesvirus 2, 50%
HIV-1 (IIIB) = assay: microbe, parasite or virus in culture; assay type: cell-based; settings: Human immunodeficiency virus 1, IIIB, CCRF-CEM; concentration required to inhibit HIV-induced cytopathicity in human CEM cell cultures by 50%
[2] = Cytotoxicity: inhibition of HEL cell growth (CC50); assay type: cell-based; settings: human; concentration required to reduce cell growth by 50%; HEL cells, three days
Description: The medium was then replaced by MEM containing various concentrations of the test compound. After three days incubation at 37° C., when the cell monolayer was 70% confluent, the cell number was determined with the Coulter counter. The minimum cytotoxic concentration was defined as the concentration required to reduce cell growth by 50%.

[3] = test system: L1210/0, FM3A, Molt4/C8, CEM/0 and HeLa cells; assay: Cytostatic studies, conclusion over the panel of cell lines; assay type: cell-based, murine and human; settings: conclusion in text on Table 3
Description: The compounds were tested for anti-tumor activity via the inhibitory effects on the proliferation of murine leukemia cells (L1210/0), murine mammary carcinoma cells (FM3A), human T-lymphocyte cells (Molt4/C8, CEM/0) and human cervix carcinoma cells (HeLa).

CMV AD-169 strain = assay: Anti-CMV activity: plaque reduction in HEL cells, AD-169 strain; assay type: cell-based, human cytomegalovirus (CMV); settings: for IC50: Human betaherpesvirus 5, AD169, HEL, Table 2, reduce virus plaque formation by 50%, virus input 100 PFU, read-out: IC50 CMV AD-169 Strain
CMV Davis strain = assay: Anti-CMV activity: plaque reduction in HEL cells, Davis strain; assay type: cell-based, human cytomegalovirus (CMV); settings: Human betaherpesvirus 5, HEL; Table 2; reduce virus plaque formation by 50%; virus input 100 PFU; read-out: IC50 CMV David strain

SMILES | activity at 25 ppm [1] [%] | Cytotoxicity Cell morphology (MCC) (HEL cells) [μg/ml] | activity at 25 ppm (VRE ATCC700221) [%] | EC50 (VZV YS) [µg/mL] | EC50 (HSV-2 (G)) [µg/mL] | EC50 (HIV-1 (IIIB)) [µg/mL] | CC50 at 3 days [2] [µg/mL] | melting point [°C] | cytostatic activity, in words [3] | IC50 (CMV AD-169 strain) [µg/mL] | anti-viral activity against CMV, in words (CMV AD-169 strain; strain not named) | IC50 (CMV Davis strain) [µg/mL]
CO[C@@H]1[C@@H](OC)[C@H](Cc2ccccc2)O[C@@H]2CO[C@@H](c3ccccc3)O[C@@H]12 [KPE00001019] | 66 | 20 | 97 | > 5 | > 80 | > 100 | > 50 | – | – | – | – | –
CO[C@@H]1[C@@H](OC)[C@H](c2ccccc2)O[C@@H]2CO[C@@H](c3ccccc3)O[C@@H]12 [KPE00001015] | 66 | 50 | 67.8 | 14 (≈ 39.3 µM) | > 80 | > 4 | > 50 | – | – | – | – | –
CO[C@@H]1[C@@H](OC)[C@H](Sc2ccccc2)O[C@@H]2COC(=O)CCCC/C=C/CCCCC(=O)O[C@@H]12 [KPE00001016.1] | 74 | – | 61.8 | 22 (≈ 44.7 µM) | > 3.2 | > 4 | – | 60 to 61 | good cytostatic activity | 10 (≈ 20.3 µM) | especially active | 10 (≈ 20.3 µM)
CO[C@@H]1[C@@H](OC)[C@H](Cc2ccccc2)O[C@@H]2COC(=O)CC/C=C/CCC(=O)O[C@@H]12 [KPE00001022] | 67 | – | 87 | > 20 | 80 (≈ 191 µM) | > 20 | – | – | good cytostatic activity | > 5 | – | –
CO[C@@H]1[C@@H](OC)[C@H](Sc2ccccc2)O[C@@H]2COC(=O)CCCC/C=C\CCCCC(=O)O[C@@H]12 [KPE00001016.2] | 58 | – | 81 | > 50 | > 3.2 | > 100 | – | 87 to 88 | – | > 20 | – | > 20
CO[C@@H]1[C@@H](OC)[C@H](Cc2ccccc2)O[C@@H]2COC(=O)CCCCCCCCC=CCCCCCCCCC(=O)O[C@@H]12 [KPE00001031E] | 62 | – | 85.4 | 15 (≈ 25.6 µM) | > 400 | > 100 | – | 45 to 46 | – | > 5 | – | –
